{"source": "paper PMC8668026", "about": "(ACS infectious diseases, 2021)", "key": {"E. coli BW25113 (WT)": {"system": "E. coli BW25113 (WT)", "test": "MIC, 2-fold broth dilution, E. coli WT", "assay_type": "cell-based, Escherichia coli", "conditions": "for MIC: Escherichia coli, BW25113, read-out: MIC WT"}, "E. coli WT-pore": {"system": "E. coli WT-pore", "test": "MIC, 2-fold broth dilution, hyperporinated WT-pore", "assay_type": "cell-based, Escherichia coli", "conditions": "for MIC: Escherichia coli, read-out: MIC WT-pore"}, "E. coli ΔtolC": {"system": "E. coli ΔtolC", "test": "MIC, 2-fold broth dilution, efflux-deficient ΔtolC", "assay_type": "cell-based, Escherichia coli", "conditions": "average of two replicates"}, "E. coli ΔtolC-pore": {"system": "E. coli ΔtolC-pore", "test": "MIC, 2-fold broth dilution, ΔtolC-pore", "assay_type": "cell-based, Escherichia coli", "conditions": "average of two replicates"}, "E. coli WT-pore cells": {"system": "E. coli WT-pore cells", "test": "Checkerboard potentiation of novobiocin/erythromycin", "assay_type": "cell-based, Escherichia coli"}, "A549 cells": {"system": "A549 cells", "test": "MTS cytotoxicity assay", "assay_type": "cell-based, human", "conditions": "average of two replicates"}, "E. cloacae ATCC13047 [1]": {"system": "E. cloacae ATCC13047", "test": "MIC in E. cloacae", "assay_type": "cell-based, Enterobacter cloacae"}, "E. cloacae ATCC13047 [2]": {"system": "E. cloacae ATCC13047", "test": "Potentiation of NOV, ERY, CIP in E. cloacae", "assay_type": "cell-based, Enterobacter cloacae"}, "K. pneumoniae ATCC13883 [3]": {"system": "K. pneumoniae ATCC13883", "test": "MIC in K. pneumoniae", "assay_type": "cell-based, Klebsiella pneumoniae"}, "K. pneumoniae ATCC13883 [4]": {"system": "K. pneumoniae ATCC13883", "test": "Potentiation of NOV, ERY, CIP in K. pneumoniae", "assay_type": "cell-based, Klebsiella pneumoniae"}, "AcrAB−TolC": {"target": "AcrAB−TolC (Escherichia coli, UniProt P0AE06+P31224)", "sequence (P31224 whole entry)": "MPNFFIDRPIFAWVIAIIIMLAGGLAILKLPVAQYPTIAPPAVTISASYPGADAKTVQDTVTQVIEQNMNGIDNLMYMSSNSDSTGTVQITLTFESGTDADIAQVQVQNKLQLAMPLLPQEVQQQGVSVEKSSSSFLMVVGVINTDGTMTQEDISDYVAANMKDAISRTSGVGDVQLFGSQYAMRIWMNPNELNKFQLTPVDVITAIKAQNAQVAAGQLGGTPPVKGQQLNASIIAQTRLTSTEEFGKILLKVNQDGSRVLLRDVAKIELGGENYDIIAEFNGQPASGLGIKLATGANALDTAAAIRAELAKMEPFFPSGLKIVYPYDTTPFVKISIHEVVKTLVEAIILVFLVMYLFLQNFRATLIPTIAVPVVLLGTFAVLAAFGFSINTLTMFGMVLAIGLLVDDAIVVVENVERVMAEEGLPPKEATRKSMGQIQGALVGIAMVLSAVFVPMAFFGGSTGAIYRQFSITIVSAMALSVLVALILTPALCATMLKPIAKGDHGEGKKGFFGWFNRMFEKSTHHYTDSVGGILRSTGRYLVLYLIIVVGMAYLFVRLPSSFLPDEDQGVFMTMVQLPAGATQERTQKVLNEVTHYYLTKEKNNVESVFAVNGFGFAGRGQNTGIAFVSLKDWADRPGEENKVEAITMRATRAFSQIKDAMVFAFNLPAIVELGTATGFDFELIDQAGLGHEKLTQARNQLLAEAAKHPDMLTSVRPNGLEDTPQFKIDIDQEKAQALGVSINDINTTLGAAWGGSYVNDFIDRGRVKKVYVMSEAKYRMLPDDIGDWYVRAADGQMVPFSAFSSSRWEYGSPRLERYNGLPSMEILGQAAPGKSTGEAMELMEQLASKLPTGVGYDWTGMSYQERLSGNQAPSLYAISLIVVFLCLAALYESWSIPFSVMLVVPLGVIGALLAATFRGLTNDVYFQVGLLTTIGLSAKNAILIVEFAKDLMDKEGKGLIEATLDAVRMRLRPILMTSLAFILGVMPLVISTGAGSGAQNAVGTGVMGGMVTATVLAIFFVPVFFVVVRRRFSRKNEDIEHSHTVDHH", "sequence (P0AE06 25-397)": "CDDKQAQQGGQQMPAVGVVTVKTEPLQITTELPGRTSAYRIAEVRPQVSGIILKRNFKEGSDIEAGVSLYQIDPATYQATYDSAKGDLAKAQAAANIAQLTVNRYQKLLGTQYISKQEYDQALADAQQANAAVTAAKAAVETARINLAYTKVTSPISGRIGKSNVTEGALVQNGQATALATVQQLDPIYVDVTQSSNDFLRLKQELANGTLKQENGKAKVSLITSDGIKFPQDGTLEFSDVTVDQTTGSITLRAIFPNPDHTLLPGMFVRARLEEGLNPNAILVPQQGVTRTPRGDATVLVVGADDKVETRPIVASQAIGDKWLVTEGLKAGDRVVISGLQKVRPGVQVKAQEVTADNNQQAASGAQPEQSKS", "sequence (P02930 23-493, further chain)": "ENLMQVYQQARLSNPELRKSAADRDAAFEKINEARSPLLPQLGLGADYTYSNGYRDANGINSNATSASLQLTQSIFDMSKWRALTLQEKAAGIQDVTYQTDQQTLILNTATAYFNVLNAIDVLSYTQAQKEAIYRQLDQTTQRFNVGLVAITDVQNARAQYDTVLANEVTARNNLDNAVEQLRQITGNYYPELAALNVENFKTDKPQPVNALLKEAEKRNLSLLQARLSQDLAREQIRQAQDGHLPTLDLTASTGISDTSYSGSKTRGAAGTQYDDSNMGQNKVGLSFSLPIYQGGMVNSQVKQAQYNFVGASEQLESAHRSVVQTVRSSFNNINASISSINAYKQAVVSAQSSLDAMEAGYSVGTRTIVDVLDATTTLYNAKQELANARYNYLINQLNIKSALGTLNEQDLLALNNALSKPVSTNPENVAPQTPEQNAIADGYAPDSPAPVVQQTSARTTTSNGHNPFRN", "conditions": "steady-state Nile Red accumulation in WT-pore cells with 32 μM vs 0 μM compound"}, "AcrA [5]": {"target": "T1, AcrA (Escherichia coli, UniProt P0AE06)", "T1 sequence (P0AE06 25-397)": "as the sequence (P0AE06 25-397) above", "conditions": "periplasm of WT-pore cells; trypsin; accumulation of K46-K346 fragment"}, "AcrB": {"target": "AcrB (Escherichia coli, UniProt P31224)", "sequence (P31224 whole entry)": "as the sequence (P31224 whole entry) above", "conditions": "read-out: KD AcrB; SPR; ref [38] and [47]; cited from earlier work"}, "AcrA [6]": {"target": "T1, AcrA", "conditions": "read-out: KD AcrA; SPR; ref [38] and [47]; cited from earlier work"}, "[7]": {"conditions": "Enterobacter cloacae, ATCC13047"}, "[8]": {"conditions": "Klebsiella pneumoniae, ATCC13883"}}, "note": "Square brackets hold non-standard residues; d marks the D form. Peptide text beside a SMILES is read from it. * marks the point of attachment. ξ: configuration not given here. ξR = N=C(N)NCCCC(N)C(=O)O; βNA = c1ccc2cc(N*)ccc2c1"}
{"compound": "Cc1cc(N)c2cc(NC(=O)/C=C/c3ccccc3Cl)ccc2n1", "note": "[Compound 2]", "values": [{"measurement": "MIC WT", "setting": "E. coli BW25113 (WT); E. coli WT, average of two replicates", "result": 200, "unit": "µM"}, {"measurement": "MIC WT-pore", "setting": "E. coli WT-pore; E. coli hyperporinated WT-pore, average of two replicates", "result": 100, "unit": "µM"}, {"measurement": "MIC ΔtolC", "setting": "E. coli ΔtolC", "result": 12.5, "unit": "µM"}, {"measurement": "MIC ΔtolC-pore", "setting": "E. coli ΔtolC-pore", "result": 12.5, "unit": "µM"}, {"measurement": "potentiation MPC4 (ERY)", "setting": "E. coli WT-pore cells; minimum concentration reducing MIC of erythromycin 4-fold", "result": 3.1, "unit": "µM"}, {"measurement": "potentiation MPC4 (NOV)", "setting": "E. coli WT-pore cells; minimum concentration reducing MIC of novobiocin 4-fold", "result": 1.56, "unit": "µM"}, {"measurement": "CC50", "setting": "A549 cells", "result": 10, "unit": "µM"}, {"measurement": "MIC", "setting": "E. cloacae ATCC13047 [1]; E. cloacae ATCC13047, test compounds, average of two replicates", "result": ">100", "unit": "µM"}, {"measurement": "fold MIC (CIP)", "setting": "E. cloacae ATCC13047 [2]", "result": 1}, {"measurement": "fold MIC (ERY)", "setting": "E. cloacae ATCC13047 [2]", "result": 8}, {"measurement": "fold MIC (NOV)", "setting": "E. cloacae ATCC13047 [2]", "result": 64}, {"measurement": "MIC", "setting": "K. pneumoniae ATCC13883 [3]; K. pneumoniae ATCC13883, test compounds, average of two replicates", "result": ">100", "unit": "µM"}, {"measurement": "fold MIC (NOV)", "setting": "K. pneumoniae ATCC13883 [4]", "result": 64}, {"measurement": "efflux inhibition, SS ratio 32 μM/0 μM", "setting": "AcrAB−TolC", "result": 6.5}, {"measurement": "effect on proteolytic profile of AcrA", "setting": "AcrA [5]", "result": "did not affect the proteolytic profiles of AcrA"}]}
{"compound": "CC[C@H]1OC(=O)[C@H](C)[C@@H](O[C@H]2C[C@@](C)(OC)[C@@H](O)[C@H](C)O2)[C@H](C)[C@@H](O[C@@H]2O[C@H](C)C[C@H](N(C)C)[C@H]2O)[C@](C)(O)C[C@@H](C)C(=O)[C@H](C)[C@@H](O)[C@]1(C)O", "note": "[ERY, erythromycin]", "values": [{"measurement": "MIC", "setting": "E. coli BW25113 (WT)", "result": 64, "unit": "µM"}, {"measurement": "MIC", "setting": "E. coli WT-pore", "result": "4 to 8", "unit": "µM"}, {"measurement": "MIC ΔtolC", "setting": "E. coli ΔtolC", "result": 2, "unit": "µM"}, {"measurement": "MIC", "setting": "E. cloacae ATCC13047 [1]; [7]", "result": 400, "unit": "µg/mL"}, {"measurement": "MIC", "setting": "K. pneumoniae ATCC13883 [3]; [8]", "result": 400, "unit": "µg/mL"}]}
{"compound": "NC(N)=NCCCC(NC(=O)[C@@H](N)Cc1ccccc1)C(=O)Nc1ccc2ccccc2c1", "note": "(stereo partly shown) [MC] (H-Phe-[ξR]-βNA)", "values": [{"measurement": "Kd", "setting": "AcrB", "result": 110, "unit": "µM"}]}
{"compound": "CO[C@@H]1[C@@H](OC(N)=O)[C@@H](O)[C@H](Oc2ccc3c(O)c(NC(=O)c4ccc(O)c(CC=C(C)C)c4)c(=O)oc3c2C)OC1(C)C", "note": "[NOV, novobiocin]", "values": [{"measurement": "MIC", "setting": "E. coli BW25113 (WT)", "result": 128, "unit": "µM"}, {"measurement": "MIC", "setting": "E. coli WT-pore", "result": "32 to 64", "unit": "µM"}, {"measurement": "MIC ΔtolC", "setting": "E. coli ΔtolC", "result": 0.5, "unit": "µM"}, {"measurement": "MIC ΔtolC-pore", "setting": "E. coli ΔtolC-pore", "result": 0.125, "unit": "µM"}, {"measurement": "MIC", "setting": "E. cloacae ATCC13047 [1]; [7]", "result": 400, "unit": "µg/mL"}, {"measurement": "MIC", "setting": "K. pneumoniae ATCC13883 [3]; [8]", "result": 50, "unit": "µg/mL"}, {"measurement": "Kd", "setting": "AcrA [6]", "result": 40, "unit": "µM"}]}
